{"source": "patent US20080206761A1", "about": "“Ex Vivo Gene Expression in Whole Blood as a Model of Assessment of Individual Variation to Dietary Supplements” (priority 2005, published 2008)", "tested_on": "TNFSF3 mRNA", "assay": "TNFSF3 mRNA in whole blood after dietary component and heat-aggregated IgG stimulation", "type": "cell-based, human", "conditions": "case 1, FIG. 5; pre-incubation 30 minutes, HAG 2 hours; quercetin 100 nmol/L", "protocol": "The mRNA and cDNA were prepared from the whole blood that was exposed to the dietary components, as well as the whole blood which remained unexposed. In brief, home-made 96-well filterplates were placed over collection plates, and 150 μl 5 mM Tris, pH 7.4, was applied. Following centrifugation at 120×g for 1 min at 4° C., 50 μl of blood samples were applied to each well and immediately centrifuged at 120×g for 2 min at 4° C., followed by washing of each well with 300 μl PBS once with centrifugation at 2000×g for 5 min at 4° C. […] The Ct was determined by analytical software (SDS, ABI).\nIn this embodiment, heparinized whole blood of two individuals was pre-incubated with various dietary supplements at 37° C. for 30 minutes (at the same blood concentrations as in Embodiment 2), then stimulated with 1.2 μL of heat-aggregated IgG. […] The level of TNFSF3 and TNFSF15 mRNA was then assessed using the method described in Embodiment 1, with the exception that SYBR Green PCR was used to quantitate the mRNA. […]", "data": [{"smiles": "O=c1c(O)c(-c2ccc(O)c(O)c2)oc2cc(O)cc(O)c12", "note": "[quercetin]", "values": [{"measurement": "HAG-induced TNFSF3 expression, in words", "result": "HAG induced TNFSF3 expression in blood exposed to quercetin"}]}]}
